What all share (format): cell-based
In experiment [1] the target is T1, TLR2 (Homo sapiens, UniProt O60603). In words: TLR2 antagonist screening assay, HEK Blue hTLR2 cells, competition with diprovocim. More on the design: host or cells: HEK Blue hTLR2 cells. An excerpt:
TLRs signal through ligand-mediated dimerization or multimerization. TLR2 may partner with TLR1 or TLR6 to produce an agonist signal. Compounds that prevent agonist signaling, antagonists, may interfere with proper dimerization or with downstream signaling. The following assay was developed to identify and characterize novel TLR2 antagonists.
The in vitro TLR2 assay consists of a cell line that responds to TLR2 engagement by producing a factor that elicits a color change in the culture media and can be readily measured by various colorimetric detection methods. This assay enables the identification of existing and novel compounds that engage TLR2. Treating reporter cells with putative TLR2 antagonists will diminish the reporter response to TLR2 agonists.
TLR2 antagonists were screened for TLR2 binding and blocking with a competition assay. […] The assay was performed with Invivogen HEK Blue cells, which express the human TLR2 receptor as well as NFkB-inducible secreted Alkaline Phosphatase. Alkaline Phosphatase activity was proportional to TLR2 activation, and thus served as a colorimetric reporter.
HEK Blue hTLR2 cells (Invivogen) were grown in DMEM with 10% FBS (Seradigm). Cells were seeded at 40,000 cells/well in 96-well plates and incubated overnight to adhere. Media was replaced with 200 uL/well HEK Blue Detection Medium (Invivogen). […] Cells incubated for 16-24 hours, then absorbance at 600 nm was read on a SpectraMax M2 (Molecular Devices). […] Four parameter dose response curves were fit according to the following model, and IC50 values were reported: Y=Bottom+(Top-Bottom)/(1+(IC50/X)^HillSlope)
Where X is the antagonist concentration, Y is the normalized absorbance, Top and Bottom are the plateaus, IC50 is the concentration at half-maximal inhibition, and HillSlope is the slope factor.
• 1. HEK-Blue TLR2 cells are diluted in complete DME culture medium and plated into 96-well plates at 40,000 cells per well and cultured overnight. • 2. After 16-24 hours in culture, the media is removed and replaced with 200 microliters per well of HEK-Blue Detection media. • 3. TLR2 antagonists are diluted 100-fold from DMSO stocks into each well, yielding a final DMSO concentration of 1% in all wells. Reporter cells are treated for 1-2 hours, then treated with TLR2 agonist diluted to the EC50-70 concentration. • 4. Treated cells are cultured overnight and the following day are assayed in plate reader for Absorbance at 600 nanometer.

Experiment [2] has as its target T1, TLR2. Put plainly: TLR2 agonist screening assay, HEK-Blue TLR2 reporter cell line (NF-kB-driven SEAP, absorbance at 600 nm). The arrangement: host or cells: HEK-293 (HEK-Blue TLR2 reporter cell line). To be noted: HEK-Blue TLR2 reporter cells, agonist mode. A digest of the protocol:
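HEK-293 cells expressing TLR2 with NF-kB-driven SEAP were plated at 40,000 per well. After 16-24 h, they were treated overnight with diluted agonists in detection medium (1% DMSO final). Absorbance at 600 nm was read, and EC50 values were fitted.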

In experiment [3] the target is T2, TLR2 (Mus musculus, UniProt Q9QUN7).
T2 construct: endogenous in cells; host or cells: RAW 264.7
Put plainly: TLR2 functional assay, cytokine release from RAW 264.7 mouse macrophage cell line. To be noted: average of all runs. Summed up: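 RAW 264.7 cells plated (about 40,000 per well) and treated with compounds at varying concentrations for 6–24 h (or overnight). Released cytokines in supernatant (e.g. TNF-alpha, IL-1, IL-10, IL-12) measured by ELISA or MSD multiplex; EC50 fitted.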

Experiment [4] deals with T1, TLR2. Put plainly: TLR2 in vitro functional assay, cytokine release from human monocytic cell line THP-1. To be noted: THP-1 human monocytic cell line, average of all runs. The protocol:
Cells of the immune system respond to TLR agonists in part by secreting cytokines. Functional assays for TLR2 agonists measure cytokine release from purified immune cells or immortalized cell lines derived from immune cells. Cytokine release is measured by standard ELISA approaches or multiplexed analysis using the Meso Scale Discovery (MSD) platform.
Following assay measurements utilizing either HEK-Blue detection or cytokine release, all data is analyzed with the GraphPad Prism8 statistical package to determine EC50, binding and activity metrics for the TLR2 modulators. […]
Numerous cell lines derived from various cell types can respond to TLR2 agonists with stereotyped cytokine and chemokine secretion. In particular, cell lines derived from macrophages respond robustly to TLR2 agonists by secreting a wide array of cytokines, including (but not limited to) TNF-alpha, IL-1, IL-10 and IL-12. The human monocytic cell line THP-1, the mouse macrophage line RAW-264.7, and the rat macrophage line NR8383 were used. For each assay, the respective cell lines were plated into 96-well plates overnight and then treated the following day with various TLR2-engaging compounds at varying concentrations. The next day, supernatants were collected and assayed by multiplex immunodetection for cytokines released (MSD detection kits for respective species).
Data provided in Table 5 is generated using protocols described in Example 45 and 46.

A value given as a limit tells only on which side of the number the result lay.

T1 sequence (O60603 21-784): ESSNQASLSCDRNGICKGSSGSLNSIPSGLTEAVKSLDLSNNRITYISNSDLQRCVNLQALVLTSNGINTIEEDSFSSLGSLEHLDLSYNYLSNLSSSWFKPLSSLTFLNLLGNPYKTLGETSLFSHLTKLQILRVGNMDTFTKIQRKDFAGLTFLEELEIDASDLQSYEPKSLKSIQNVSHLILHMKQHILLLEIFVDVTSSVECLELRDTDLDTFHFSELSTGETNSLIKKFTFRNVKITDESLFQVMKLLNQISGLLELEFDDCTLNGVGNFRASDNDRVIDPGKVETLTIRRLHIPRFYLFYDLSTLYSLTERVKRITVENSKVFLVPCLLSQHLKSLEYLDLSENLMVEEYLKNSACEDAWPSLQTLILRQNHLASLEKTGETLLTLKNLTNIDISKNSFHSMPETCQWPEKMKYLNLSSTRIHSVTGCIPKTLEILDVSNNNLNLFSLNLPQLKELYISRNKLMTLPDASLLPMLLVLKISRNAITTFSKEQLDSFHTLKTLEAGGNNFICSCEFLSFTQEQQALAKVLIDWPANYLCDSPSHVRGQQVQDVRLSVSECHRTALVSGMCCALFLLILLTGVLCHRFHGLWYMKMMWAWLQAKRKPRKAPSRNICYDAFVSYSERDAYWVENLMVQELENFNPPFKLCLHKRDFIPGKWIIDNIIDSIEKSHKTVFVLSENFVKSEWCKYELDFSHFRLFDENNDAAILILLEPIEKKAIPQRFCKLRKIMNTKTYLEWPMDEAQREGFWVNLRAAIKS
T2 sequence (Q9QUN7 25-784): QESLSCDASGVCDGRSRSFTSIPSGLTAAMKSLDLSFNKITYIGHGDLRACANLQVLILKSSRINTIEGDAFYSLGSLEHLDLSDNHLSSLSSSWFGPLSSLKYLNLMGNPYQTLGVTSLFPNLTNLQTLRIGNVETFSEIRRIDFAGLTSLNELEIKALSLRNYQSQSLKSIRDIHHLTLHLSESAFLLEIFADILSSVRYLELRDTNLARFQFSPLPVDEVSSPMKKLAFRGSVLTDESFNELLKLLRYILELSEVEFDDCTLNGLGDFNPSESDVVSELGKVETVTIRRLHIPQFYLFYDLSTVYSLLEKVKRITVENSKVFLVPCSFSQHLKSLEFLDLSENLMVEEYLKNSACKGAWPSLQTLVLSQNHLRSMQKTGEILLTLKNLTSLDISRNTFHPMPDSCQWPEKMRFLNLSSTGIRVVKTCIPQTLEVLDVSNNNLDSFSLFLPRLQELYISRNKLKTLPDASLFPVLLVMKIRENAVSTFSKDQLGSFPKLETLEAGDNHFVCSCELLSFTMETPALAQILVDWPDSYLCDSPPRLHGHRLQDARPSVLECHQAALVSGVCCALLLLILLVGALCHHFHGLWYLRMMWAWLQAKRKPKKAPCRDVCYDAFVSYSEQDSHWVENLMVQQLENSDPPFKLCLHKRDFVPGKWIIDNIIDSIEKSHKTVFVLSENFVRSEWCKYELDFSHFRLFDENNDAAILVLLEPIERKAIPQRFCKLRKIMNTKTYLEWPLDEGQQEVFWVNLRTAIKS

Consider `CCCCCCCCCCCCCCC(=O)NC1CCN(C(=O)c2ccc(C(=O)N3C[C@@H](C(=O)N[C@H]4C[C@@H]4c4ccccc4)[C@H](C(=O)N[C@H]4C[C@@H]4c4ccccc4)C3)cc2)CC1` [Compound 008], for which, on TLR2 [1], the IC50 (commonly the concentration needed to halve the response being measured) is 351 to 1000 nM. Moreover, the concentration giving a half-maximal response (EC50) (as a rule, the concentration needed to bring the measured effect to its halfway point) on TLR2 [2] (average of all runs (Table 3)) was > 1000 nM.
`CCCCCCCCCCCCCCNC(=O)C1CN(C(=O)c2ccc(C(=O)N3C[C@@H](C(=O)N[C@H]4C[C@@H]4c4ccccc4)[C@H](C(=O)N[C@H]4C[C@@H]4c4ccccc4)C3)cc2)C1` [Compound 007] gave an IC50 at TLR2 [1] of 351 to 1000 nM. The EC50 on TLR2 [2] (average of all runs (Table 3)) was > 1000 nM.
With `O=C(N[C@H]1C[C@@H]1c1ccccc1)[C@@H]1CN(C(=O)c2ccc(C(=O)N3CC[C@@H](n4cnc(-c5ccc(C(F)(F)F)cc5)c4)C3)cc2)C[C@H]1C(=O)N[C@H]1C[C@@H]1c1ccccc1` [Compound 277], the IC50 on TLR2 [1] fell in the range of 1 to 350 nM. In addition, the EC50 on TLR2 [2] (average of all runs (Table 4)) was > 1000 nM.
The matching figures for `CCCCCCN1C(=O)[C@H](CNC(=O)c2ccc(C(=O)N3C[C@@H](C(=O)N[C@H]4C[C@@H]4c4ccccc4)[C@H](C(=O)N[C@H]4C[C@@H]4c4ccccc4)C3)cc2)NC(=O)[C@@H]1CCCCC` [Compound 176, (3S,4S)-1-(4-((((2S,5S)-4-hexyl-3,6-dioxo-5-pentylpiperazin-2-yl)methyl)carbamoyl)benzoyl)-N3,N4-bis((1S,2R)-2-phenylcyclopropyl)pyrrolidine-3,4-dicarboxamide]: 1 to 350 nM and > 1000 nM.
The matching figures for `CCCCCCCCCCCCCCN1CC(=O)N[C@@H](CNC(=O)c2ccc(C(=O)N3C[C@@H](C(=O)N[C@H]4C[C@@H]4c4ccccc4)[C@H](C(=O)N[C@H]4C[C@@H]4c4ccccc4)C3)cc2)C1=O` [Compound 177, (3S,4S)-1-(4-((((S)-3,6-dioxo-4-tetradecylpiperazin-2-yl)methyl)carbamoyl)benzoyl)-N3,N4-bis((1S,2R)-2-phenylcyclopropyl)pyrrolidine-3,4-dicarboxamide]: 1 to 350 nM and > 1000 nM.
As for `O=C(N[C@H]1C[C@@H]1c1ccccc1)[C@@H]1CN(C(=O)C23CCC(C(=O)N4C[C@@H](C(=O)N[C@H]5C[C@@H]5c5ccccc5)[C@H](C(=O)N[C@H]5C[C@@H]5c5ccccc5)C4)(CC2)CC3)C[C@H]1C(=O)N[C@H]1C[C@@H]1c1ccccc1` [Compound 077, (3S,3'S,4S,4'S)-1,1′-(bicyclo [2.2.2]octane-1,4-dicarbonyl) bis (N3,N4-bis((1S,2R)-2-phenylcyclopropyl)pyrrolidine-3,4-dicarboxamide)], the IC50 on TLR2 [1] fell in the range of 351 to 1000 nM. Moreover, the EC50 at TLR2 [2] (average of all runs (Table 4)) is > 1000 nM.
The matching figures for `CCCCCCCC(=O)N1CCCN(S(=O)(=O)c2ccc(C(=O)N3C[C@@H](C(=O)N[C@H]4C[C@@H]4c4ccccc4)[C@H](C(=O)N[C@H]4C[C@@H]4c4ccccc4)C3)cc2)CC1C(=O)NCCCCCC` (single isomer, unassigned) [Compound 203, (3S,4S)-1-(4-(((R*)-3-(hexylcarbamoyl)-4-octanoyl-1,4-diazepan-1-yl)sulfonyl)benzoyl)-N3,N4-bis((1S,2R)-2-phenylcyclopropyl)pyrrolidine-3,4-dicarboxamide]: 351 to 1000 nM and > 1000 nM.
`CCCCCCCC(=O)N1CCN(S(=O)(=O)c2ccc(C(=O)N3C[C@@H](C(=O)N[C@H]4C[C@@H]4c4ccccc4)[C@H](C(=O)N[C@H]4C[C@@H]4c4ccccc4)C3)cc2)CC1C(=O)NCCCCCC` (stereo partly shown) [Compound 053] registered an IC50 on TLR2 [1] of 351 to 1000 nM. In addition, the EC50 at TLR2 [2] (average of all runs (Table 3)) was > 1000 nM.
Turning to `CCCCCCCC(=O)N1CCN(S(=O)(=O)c2ccc(C(=O)N3C[C@@H](C(=O)N[C@H]4C[C@@H]4c4ccccc4)[C@H](C(=O)N[C@H]4C[C@@H]4c4ccccc4)C3)cc2)C[C@H]1C(=O)NCCCCCC` [Compound 160, (3S,4S)-1-(4-(((S)-3-(hexylcarbamoyl)-4-octanoylpiperazin-1-yl)sulfonyl)benzoyl)-N3,N4-bis((1S,2R)-2-phenylcyclopropyl)pyrrolidine-3,4-dicarboxamide], the IC50 at TLR2 [1] lay in the range of 351 to 1000 nM. Moreover, at TLR2 [2] (average of all runs (Table 4)), the EC50 is > 1000 nM.
On to `CCCCCCCCCCCCCCNC(=O)C1CN(C(=O)c2ccc(C(=O)N3C[C@@H](C(=O)N[C@H]4C[C@@H]4c4ccccc4)[C@H](C(=O)N[C@H]4C[C@@H]4c4ccccc4)C3)cc2)CCN1C(C)=O` (stereo partly shown) [Compound 024], for which the IC50 at TLR2 [1] lay in the range of 351 to 1000 nM. The EC50 at TLR2 [2] (average of all runs (Table 3)) is > 1000 nM.
Molecule `CCCCCCCCCCCCCCNC(=O)[C@@H]1CN(C(=O)c2ccc(C(=O)N3C[C@@H](C(=O)N[C@H]4C[C@@H]4c4ccccc4)[C@H](C(=O)N[C@H]4C[C@@H]4c4ccccc4)C3)cc2)CCN1C(C)=O` [Compound 162, (3S,4S)-1-(4-((S)-4-acetyl-3-(tetradecylcarbamoyl)piperazine-1-carbonyl)benzoyl)-N3,N4-bis((1S,2R)-2-phenylcyclopropyl) pyrrolidine-3,4-dicarboxamide] yielded an IC50 on TLR2 [1] of 1 to 350 nM. Moreover, the EC50 at TLR2 [2] (average of all runs (Table 4)) is > 1000 nM.
On to `CCCCCCCCCCCCCCC(=O)N[C@H]1CN(C(=O)c2ccc(C(=O)N3C[C@@H](C(=O)N[C@H]4C[C@@H]4c4ccccc4)[C@H](C(=O)N[C@H]4C[C@@H]4c4ccccc4)C3)cc2)C[C@@H]1OC` [Compound 101, (3S,4S)-1-(4-((3S,4S)-3-methoxy-4-pentadecanamidopyrrolidine-1-carbonyl)benzoyl)-N3,N4-bis((1S,2R)-2-phenylcyclopropyl) pyrrolidine-3,4-dicarboxamide], for which the EC50 at TLR2 [3] is > 1000 nM; at TLR2 [4], 0.1 to 50 nM; on TLR2 [2] (average of all runs (Table 4)), 0.1 to 50 nM.
Consider `CCCCCCCCCCCCCCNC(=O)[C@@H]1CN(C(=O)c2ccc(C(=O)N3C[C@@H](C(=O)N[C@H]4C[C@@H]4c4ccccc4)[C@H](C(=O)N[C@H]4C[C@@H]4c4ccccc4)C3)cc2)C[C@H]1OC` [Compound 109, (3S,4S)-1-(4-((3S,4R)-3-methoxy-4-(tetradecylcarbamoyl)pyrrolidine-1-carbonyl)benzoyl)-N3,N4-bis((1S,2R)-2-phenylcyclopropyl)pyrrolidine-3,4-dicarboxamide], for which the figures for the EC50 at TLR2 [3], on TLR2 [4] and on TLR2 [2] (average of all runs (Table 4)) were > 1000 nM, 0.1 to 50 nM and 0.1 to 50 nM, respectively.

(Values after US11951094B2, “TLR2 modulator compounds, pharmaceutical compositions and uses thereof” (Axial Therapeutics, Inc., priority 2020, dated 2024).)
